From US4751302A, “Indazole derivatives” (priority 1982, dated 1988)
Read-outs that look alike come from different tables or passages of the source.

What was measured:
[1] = system: Carrageenin edema in rat's paw; experiment: Carrageenin Edema Test in Rat's Paw (anti-inflammatory activity, Table 1); assay type: in vivo; details: 100 mg/kg oral, hydrochloride, rat
Protocol: An anti-inflammatory activity was measured by orally administering 100 mg/kg of a hydrochloride of the indazole derivative of this invention as set forth in Table 1 to an animal in accordance with the standard method of Carrageenin Edema Test in Rat's Paw described in C. A. Winter et al., Proc. Soc. Exp. Biol. Med., 111, 544 (1962).

gastric ulcer = assay type: in vivo, Male donryu rats
Protocol: The test compound was suspended in 1% HCO-60 (trade name for polyoxyethylene hydrogenated castor oil; a product of Nikko Chemical Co., Ltd., Japan) at the concentration of 10 mg/ml. Male donryu rats weighing 150-160 g were orally administered 100 mg/kg of the test compound. The occurrence of gastric ulcer was examined 24 hours after the administration.
It is well known that the single use of acidic non-steroidal anti-inflammatory drugs causes a side effect in digestive tract ulcers such as gastric ulcer. The inventors found, however, that the side effect could be suppressed if the acidic non-steroidal anti-inflammatory drugs were used in combination with the indazole derivatives or pharmaceutically acceptable salts thereof of this invention. For example, gastric ulcer was caused by a single administration of 10 mg/kg of indomethacin in an ulcer index of 10.2 mm, and in an occurrence frequency of 6/6 (Ulcer generation animal number/Total animal number).

in vivo = details: mouse, ip, intraperitoneal, hydrochloride, male ddy mice
[2] = system: Bradykinin inducing edema; experiment: Anti-edema test, bradykinin inducing edema (Table 2); assay type: in vivo, rat; details: after 30 minutes
Protocol: (§1) […] A. Winter et al., NonSteroidal Anti-inflammatory Drugs. As an edema inducing substance, bradykinin, histamine and serotonin were employed. […] Bradykinin inducing edema inhibition and histamine inducing edema inhibition were measured after 30 minutes of the administration, and serotonin inducing edema inhibition was measured after 3 hours of the administration.

Histamine inducing edema = experiment: Anti-edema test, histamine inducing edema (Table 2); assay type: in vivo, rat; details: after 30 minutes
Protocol: as §1

Serotonin inducing edema = experiment: Anti-edema test, serotonin inducing edema (Table 2); assay type: in vivo, rat; details: after 3 hours
Protocol: as §1

acetic acid-writing = experiment: Analgesic activity, acetic acid-writing test (Table 3); assay type: in vivo, animal (rat); standard mouse acetic acid-writing test
[3] = 100 mg/kg Compound (126) together with 10 mg/kg indomethacin

| Structure (SMILES) | inhibition in vivo at 100 mg/kg [1] | LD50 (in vivo) | other results |
| --- | --- | --- | --- |
| CCN(CC)CCCn1nc(NCCCN2CCCCC2)c2cc(O)ccc21 [(126), 1-(3-Diethylaminopropyl)-3-(3-piperidinopropylamino)-5-hydroxyindazole] | 28% | 310 mg/kg | occurrence frequency of ulcer (gastric ulcer; [3]): the occurrence frequency was not changed; ulcer index (gastric ulcer; [3]): 5.8 mm; occurrence of gastric ulcer (gastric ulcer; rat, in vivo): gastric ulcer did not occur |
| CC(CCNc1nn(CCC(C)N2CCCCC2)c2ccc(O)cc12)N(C)C (stereo not drawn) [(137), 1-(3-Piperidinobutyl)-3-(3-dimethylaminobutylamino)-5-hydroxyindazole] | 21% | 258 mg/kg | – |
| CCN(CC)CCCNc1nn(CCC(C)N(C)C)c2ccc(O)cc12 (stereo not drawn) [(138), 1-(3-Dimethylaminobutyl)-3-(3-diethylaminopropylamino)-5-hydroxyindazole] | 29% | 213 mg/kg | – |
| CC(CCn1nc(NCCCN2CCCCC2)c2cc(O)ccc21)N(C)C (stereo not drawn) [(139), 1-(3-Dimethylaminobutyl)-3-(3-piperidinopropylamino)-5-hydroxyindazole] | 28% | 249 mg/kg | – |
| CC(CCn1nc(NCCC(C)N2CCCCC2)c2cc(O)ccc21)N(C)C (stereo not drawn) [(140), 1-(3-Dimethylaminobutyl)-3-(3-piperidinobutylamino)-5-hydroxyindazole] | 27% | 313 mg/kg | – |
| CCN(CC)C(CCNc1nn(CCC(C)N(C)C)c2ccc(O)cc12)CC(C)C (stereo not drawn) [(141), 1-(3-Dimethylaminobutyl)-3-(3-diethylamino-5-methylhexylamino)-5-hydroxyindazole] | 21% | 340 mg/kg | – |
| Oc1ccc2c(c1)c(NCCCN1CCCCCC1)nn2CCCN1CCCC1 [(142), 1-(3-Pyrrolidinopropyl)-3-(3-homopiperidinopropylamino)-5-hydroxyindazole] | 28% | 349 mg/kg | – |
| CC1CCCCN1CCCNc1nn(CCCN2CCCC2)c2ccc(O)cc12 (stereo not drawn) [(143), 1-(3-Pyrrolidinopropyl)-3-[3-(2-methylpiperidino)propylamino]-5-hydroxyindazole] | 30% | 291 mg/kg | – |
| CN1CCN(CCCNc2nn(CCCN3CCCC3)c3ccc(O)cc23)CC1 [(144), 1-(3-Pyrrolidinopropyl)-3-[3-(4-methylpiperazino)propylamino]-5-hydroxyindazole] | 26% | 281 mg/kg | – |
| CCN(CC)CCCNc1nn(CCCN2CCOCC2)c2ccc(O)cc12 [(145), 1-(3-Morpholinopropyl)-3-(3-diethylaminopropylamino)-5-hydroxyindazole] | 30% | 211 mg/kg | – |
| CC1CCCC(C)N1CCCNc1nn(CCCN2CCOCC2)c2ccc(O)cc12 (stereo not drawn) [(146), 1-(3-Morpholinopropyl)-3-[3-(2,6-dimethylpiperidino)propylamino]-5-hydroxyindazole] | 32% | 198 mg/kg | – |
| Oc1ccc2c(c1)c(NCCCN1CCC(Cl)CC1)nn2CCCN1CCOCC1 [(147), 1-(3-Morpholinopropyl)-3-[3-(4-chloropiperidino)propylamino]-5-hydroxyindazole] | 29% | 181 mg/kg | – |
| Oc1ccc2c(c1)c(NCCCN1CCC(O)CC1)nn2CCCN1CCOCC1 [(148), 1-(3-Morpholinopropyl)-3-[3-(4-hydroxypiperidino)propylamino]-5-hydroxyindazole] | 30% | 245 mg/kg | – |
| Nc1nn(CCCN2CCOCC2)c2ccccc12 [(149), 1-(3-Morpholinopropyl)-3-aminoindazole] | 50% | 261 mg/kg | – |
| CC(CCn1nc(N)c2ccccc21)N1CCOCC1 (stereo not drawn) [(150), 1-(3-Morpholinobutyl)-3-aminoindazole] | 39% | 270 mg/kg | – |
| Nc1nn(CCN2CCOCC2)c2ccccc12 [(151), 1-(2-Morpholinoethyl)-3-aminoindazole] | 48% | 290 mg/kg | – |
| c1ccc2c(NCCCN3CCOCC3)n[nH]c2c1 [(152), 3-(3-Morpholinopropylamino)indazole] | 51% | – | Bradykinin inducing edema Inhibition ([2]; 100 mg/kg oral): 37%; Histamine inducing edema Inhibition (Histamine inducing edema; 100 mg/kg oral): 20.7%; Serotonin inducing edema Inhibition (Serotonin inducing edema; 100 mg/kg oral): 42.9%; Inhibition (acetic acid-writing, analgesic activity) (acetic acid-writing; 100 mg/kg oral): 57% |
| CC(CCNc1n[nH]c2ccccc12)N1CCOCC1 (stereo not drawn) [(153), 3-(3-Morpholinobutylamino)indazole] | 51% | 331 mg/kg | – |

| Structure (SMILES) | inhibition in vivo at 100 mg/kg [1] | LD50 (in vivo) | other results |
| --- | --- | --- | --- |
| c1ccc2c(NCCN3CCOCC3)n[nH]c2c1 [(154), 3-(2-Morpholinoethylamino)indazole] | 50% | 351 mg/kg | – |
| CCN(CC)CCCNc1nn(CCCN2CCOCC2)c2ccccc12 [(155), 1-(3-Morpholinopropyl)-3-(3-diethylaminopropylamino)indazole] | 30% | 291 mg/kg | – |
| CC1CCCC(C)N1CCCNc1nn(CCCN2CCOCC2)c2ccccc12 (stereo not drawn) [(156), 1-(3-Morpholinopropyl)-3-[3-(2,6-dimethylpiperidino)propylamino]indazole] | 32% | 301 mg/kg | – |
| ClC1CCN(CCCNc2nn(CCCN3CCOCC3)c3ccccc23)CC1 [(157), 1-(3-Morpholinopropyl)-3-[3-(4-chloropiperidino)propylamino]indazole] | 29% | 251 mg/kg | – |
| OC1CCN(CCCNc2nn(CCCN3CCOCC3)c3ccccc23)CC1 [(158), 1-(3-Morpholinopropyl)-3-[3-(4-hydroxypiperidino)propylamino]indazole] | 30% | 288 mg/kg | – |
| CCCCN(CCCC)CCCn1nc(NCCCN2CCOCC2)c2ccccc21 [(159), 1-(3-Di-n-butylaminopropyl)-3-(3-morpholinopropylamino)indazole] | 41% | 191 mg/kg | – |
| c1ccc2c(c1)c(NCCCN1CCOCC1)nn2CCCN1CCCCC1 [(160), 1-(3-Piperidinopropyl)-3-(3-morpholinopropylamino)indazole] | 39% | 244 mg/kg | – |
| Nc1n[nH]c2cccc(O)c12 [(161), 3-Amino-4-hydroxyindazole] | 41% | 211 mg/kg | – |
| Nc1n[nH]c2cc(O)ccc12 [(163), 3-Amino-6-hydroxyindazole] | 43% | 252 mg/kg | – |
| Nc1n[nH]c2c(O)cccc12 [(164), 3-Amino-7-hydroxyindazole] | 42% | 231 mg/kg | – |
| Nc1n[nH]c2ccc(I)cc12 [(165), 3-Amino-5-iodoindazole] | 55% | 242 mg/kg | – |
| Nc1n[nH]c2c(I)cccc12 [(166), 3-Amino-7-iodoindazole] | 50% | 198 mg/kg | – |
| Nc1cc(N)c2[nH]nc(N)c2c1 [(167), 3,5,7-Triaminoindazole] | 85% | 171 mg/kg | – |
| COc1ccc2c(c1)c(CC(=O)O)c(C)n2C(=O)c1ccc(Cl)cc1 [Compound C-4, Indomethacin] | – | – | Bradykinin inducing edema Inhibition ([2]; Dose: 10 mg/kg, oral): 0.4%; Histamine inducing edema Inhibition (Histamine inducing edema; Dose: 10 mg/kg, oral): 0%; Serotonin inducing edema Inhibition (Serotonin inducing edema; Dose: 10 mg/kg, oral): 21.4%; Inhibition (acetic acid-writing, analgesic activity) (acetic acid-writing; Dose: 20 mg/kg, oral): 50% |
| CCCCC1C(=O)N(c2ccccc2)N(c2ccccc2)C1=O [Compound C-5, 3,5-dioxo-1,2-diphenyl-4-n-butylpyrazolidine] | – | – | Bradykinin inducing edema Inhibition ([2]; 100 mg/kg oral): 2.9%; Histamine inducing edema Inhibition (Histamine inducing edema; 100 mg/kg oral): 0%; Serotonin inducing edema Inhibition (Serotonin inducing edema; 100 mg/kg oral): 2.8%; Inhibition (acetic acid-writing, analgesic activity) (acetic acid-writing; 100 mg/kg oral): 9% |
| CC(C(=O)O)c1cccc(C(=O)c2ccccc2)c1 (stereo not drawn) [Compound C-6, 3-benzoylhydratropic acid] | – | – | Bradykinin inducing edema Inhibition ([2]; Dose: 10 mg/kg, oral): 1.6%; Histamine inducing edema Inhibition (Histamine inducing edema; Dose: 10 mg/kg, oral): 2.9%; Serotonin inducing edema Inhibition (Serotonin inducing edema; Dose: 10 mg/kg, oral): 5.2% |
| COc1ccc2c(c1)c(CC(=O)O)c(C)n2C(=O)c1ccc(Cl)cc1 [indomethacin, 1-(p-chlorobenzoyl)-5-methoxy-2-methyl-indole-3-acetic acid, reference compound] | – | – | occurrence frequency (Ulcer generation animal number/Total animal number) (gastric ulcer; rat, in vivo, 10 mg/kg): 6/6; ulcer index (gastric ulcer; rat, in vivo, 10 mg/kg): 10.2 mm |
